Assay results from US8637499B2, “Benzoxazepines as inhibitors of PI3K/mTOR and methods of their use and manufacture” (Exelixis, Inc., priority 2009, dated 2014).

Legend:
PI3Kα = PI3Kα (Homo sapiens, UniProt P42336); assay: PI3K Biochemical Assays (ATP consumption, luciferase-luciferin chemiluminescence); conditions: PI3Kα 1.5 nM, ATP 1 μM, PIP2 10 μM; percent of ATP consumed
Description: PI3Kα activity is measured as the percent of ATP consumed following the kinase reaction using luciferase-luciferin-coupled chemiluminescence. Reactions were conducted in 384-well white, medium binding microtiter plates (Greiner). Kinase reactions were initiated by combining test compounds, ATP, substrate (PIP2), and kinase in a 20 μL volume in a buffer solution. The standard PI3Kalpha assay buffer is composed 50 mM Tris, pH 7.5, 1 mM EGTA, 10 mM MgCl2, 1 mM DTT and 0.03% CHAPS. The standard assay concentrations for enzyme, ATP, and substrate are 1.5 nM, 1 μM, and 10 μM, respectively. The reaction mixture was incubated at ambient temperature for approximately 2 h. Following the kinase reaction, a 10 μL aliquot of luciferase-luciferin mix (Promega Kinase-Glo) was added and the chemiluminescence signal measured using a Victor2 plate reader (Perkin Elmer). Total ATP consumption was limited to 40-60% and IC50 values of control compounds correlate well with literature references. Substituting PI3Kα with PI3KIβ, […], or […], the inhibitory activity of the compounds for the other isoforms of I3K were measured.

mTORC1 (mTOR/GbL/Raptor) = mTORC1 (mTOR/GbL/Raptor) (Homo sapiens, UniProt P42345); assay: mTOR/GbL/Raptor (mTORC1) ELISA Assay; format: biochemical; conditions: 0.2 nM mTORC1, 10 μM ATP, 50 nM NHis-tagged 4E-BP1; phosphorylation of 4E-BP1; read-out: IC50
Description: mTOR/GbL/Raptor (mTORC1) ELISA Assay
The measurement of mTORC1 enzyme activity was performed in an ELISA assay format following the phosphorylation of 4E-BP1 protein. All experiments were performed in the 384-well format. Generally, 0.5 μL DMSO containing varying concentrations of the test compound was mixed with 15 μL enzyme solution. Kinase reactions were initiated with the addition of 15 μL of substrates-containing solution. The assay conditions were as follows; 0.2 nM mTORC1, 10 μM ATP and 50 nM NHis-tagged 4E-BP1 in 20 mM Hepes, pH 7.2, 1 mM DTT, 50 mM NaCl, 10 mM MnCl2, 0.02 mg/mL BSA, 0.01% CHAPS, 50 mM β-glycerophosphate. Following an incubation of 120 minutes at ambient temperature, 20 μL of the reaction volume was transferred to a Ni-Chelate-coated 384-well plate. The binding step of the 4E-BP1 protein proceeded for 60 minutes, followed by washing 4 times each with 50 μL of Tris-buffered saline solution (TBS). Anti-phospho-4E-BP1 rabbit-IgG (20 μL, 1:5000) in 5% BSA-TBST (0.2% Tween-20 in TBS) was added and further incubated for 60 minutes. Incubation with a secondary HRP-tagged anti-IgG was similarly performed after washing off the primary antibody (4 washes of 50 μL). Following the final wash step with TBST, 20 μL of SuperSignal ELISA Femto (Pierce Biotechnology) was added and the luminescence measured using an EnVision plate reader.

PI3Kα, sequence (P42336 whole entry): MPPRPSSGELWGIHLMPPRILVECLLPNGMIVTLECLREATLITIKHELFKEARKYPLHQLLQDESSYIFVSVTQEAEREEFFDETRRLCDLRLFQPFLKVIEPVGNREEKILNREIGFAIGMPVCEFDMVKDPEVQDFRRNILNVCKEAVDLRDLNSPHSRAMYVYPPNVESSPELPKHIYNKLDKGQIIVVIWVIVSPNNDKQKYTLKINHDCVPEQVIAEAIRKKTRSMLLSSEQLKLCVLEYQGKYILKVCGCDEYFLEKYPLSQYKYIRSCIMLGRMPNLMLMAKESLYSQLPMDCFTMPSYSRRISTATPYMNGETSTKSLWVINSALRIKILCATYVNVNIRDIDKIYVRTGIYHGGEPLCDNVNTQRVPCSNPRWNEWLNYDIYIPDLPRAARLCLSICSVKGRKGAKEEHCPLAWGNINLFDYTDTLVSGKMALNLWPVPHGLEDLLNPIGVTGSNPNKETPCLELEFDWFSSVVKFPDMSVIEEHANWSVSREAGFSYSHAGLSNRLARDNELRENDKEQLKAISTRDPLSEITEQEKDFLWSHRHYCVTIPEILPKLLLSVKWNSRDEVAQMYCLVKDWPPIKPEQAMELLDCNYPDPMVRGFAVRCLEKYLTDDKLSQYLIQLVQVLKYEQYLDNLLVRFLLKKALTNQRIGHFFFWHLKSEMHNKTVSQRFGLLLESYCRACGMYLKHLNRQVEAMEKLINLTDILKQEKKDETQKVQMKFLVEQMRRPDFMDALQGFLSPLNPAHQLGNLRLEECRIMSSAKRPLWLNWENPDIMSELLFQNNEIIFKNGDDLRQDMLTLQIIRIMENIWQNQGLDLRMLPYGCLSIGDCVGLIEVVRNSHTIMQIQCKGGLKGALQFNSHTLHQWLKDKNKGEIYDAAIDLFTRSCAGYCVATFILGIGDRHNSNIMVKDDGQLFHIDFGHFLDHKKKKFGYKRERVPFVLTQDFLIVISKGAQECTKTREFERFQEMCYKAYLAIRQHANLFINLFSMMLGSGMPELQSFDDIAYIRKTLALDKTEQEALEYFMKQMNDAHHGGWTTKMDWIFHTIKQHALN
PI3Kα, sequence (P27986 whole entry partner): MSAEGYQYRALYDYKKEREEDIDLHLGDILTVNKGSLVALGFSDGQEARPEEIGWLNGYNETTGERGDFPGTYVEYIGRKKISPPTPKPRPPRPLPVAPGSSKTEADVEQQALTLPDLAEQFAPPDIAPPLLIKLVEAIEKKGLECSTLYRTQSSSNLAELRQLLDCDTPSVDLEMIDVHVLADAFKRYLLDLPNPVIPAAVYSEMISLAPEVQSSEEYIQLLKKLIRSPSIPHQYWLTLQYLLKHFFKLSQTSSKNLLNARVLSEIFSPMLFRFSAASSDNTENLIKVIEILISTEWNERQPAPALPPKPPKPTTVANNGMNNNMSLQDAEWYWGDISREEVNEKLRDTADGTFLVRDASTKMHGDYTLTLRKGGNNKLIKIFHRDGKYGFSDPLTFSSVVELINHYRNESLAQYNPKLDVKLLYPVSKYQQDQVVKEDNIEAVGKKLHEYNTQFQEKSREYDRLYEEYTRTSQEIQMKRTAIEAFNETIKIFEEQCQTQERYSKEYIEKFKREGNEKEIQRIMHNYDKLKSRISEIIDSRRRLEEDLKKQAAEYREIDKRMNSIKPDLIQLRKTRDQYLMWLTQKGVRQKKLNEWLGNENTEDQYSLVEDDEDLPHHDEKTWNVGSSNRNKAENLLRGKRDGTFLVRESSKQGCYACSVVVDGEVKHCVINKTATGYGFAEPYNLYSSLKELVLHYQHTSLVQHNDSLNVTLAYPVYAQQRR

Row | SMILES | IC50 (PI3Kα) [nM] | IC50 (mTORC1 (mTOR/GbL/Raptor)) [nM]
1 | Cc1nc2ccc(-c3ccc4c(c3)CN(C(=O)N3CCCCC3c3ccc(F)c(C)c3)CCO4)cc2[nH]1 (stereo not shown) [Compound 118, 4-{[2-(4-fluoro-3-methylphenyl)piperidin-1-yl]carbonyl}-7-(2-methyl-1H-benzimidazol-6-yl)-2,3,4,5-tetrahydro-1,4-benzoxazepine] | 75 to 200 | ≤ 50
2 | Nc1nc2ncc(-c3ccc4c(c3)CN(C(=O)N3CCC(CCF)CC3)CCO4)cc2[nH]1 [Compound 44, 6-(4-{[4-(2-fluoroethyl)piperidin-1-yl]carbonyl}-2,3,4,5-tetrahydro-1,4-benzoxazepin-7-yl)-1H-imidazo[4,5-b]pyridin-2-amine] | ≤ 75 | ≤ 50
3 | Cc1nc2ccc(-c3ccc4c(c3)CN(C(=O)N3CCCCCC3c3ccccc3)CCO4)cc2[nH]1 (stereo not shown) [Compound 122, 7-(2-methyl-1H-benzimidazol-5-yl)-4-[(2-phenylazepan-1-yl)carbonyl]-2,3,4,5-tetrahydro-1,4-benzoxazepine] | 500 to 1000 | 250 to 700
4 | O=C1CCN(C(=O)N2CCOc3ccc(-c4ccc(-c5ncc[nH]5)cc4)cc3C2)C(c2ccc(F)c(F)c2)C1 (stereo not shown) [Compound 53, 2-(3,4-difluorophenyl)-1-({7-[4-(1H-imidazol-2-yl)phenyl]-2,3-dihydro-1,4-benzoxazepin-4(5H)-yl}carbonyl)piperidin-4-one] | ≤ 75 | ≤ 50
5 | CC1(O)CCN(C(=O)N2CCOc3ccc(-c4ccc5nc(N)[nH]c5c4)cc3C2)CC1 [Compound 23, 1-{[7-(2-amino-1H-benzimidazol-6-yl)-2,3-dihydro-1,4-benzoxazepin-4(5H)-yl]carbonyl}-4-methylpiperidin-4-ol] | 75 to 200 | ≤ 50
6 | Cc1nc2ccc(-c3ccc4c(c3)CN(C(=O)N3CCC(Cc5ccc(Cl)cc5)CC3)CCO4)cc2[nH]1 [Compound 69, 4-({4-[(4-chlorophenyl)methyl]piperidin-1-yl}carbonyl)-7-(2-methyl-1H-benzimidazol-6-yl)-2,3,4,5-tetrahydro-1,4-benzoxazepine] | 1000 to 3000 | 50 to 250
7 | Cc1nc2ccc(-c3ccc4c(c3)CN(C(=O)N3CCC(F)(F)CC3)CCO4)cc2[nH]1 [Compound 67, 4-[(4,4-difluoropiperidin-1-yl)carbonyl]-7-(2-methyl-1H-benzimidazol-6-yl)-2,3,4,5-tetrahydro-1,4-benzoxazepine] | 1000 to 3000 | 250 to 700
8 | CCNc1nc2ncc(-c3ccc4c(c3)CN(C(=O)N3[C@@H]5CC[C@H]3C[C@](O)(C(F)(F)F)C5)CCO4)cc2[nH]1 [Compound 179, 8-({7-[2-(ethylamino)-1H-imidazo[4,5-b]pyridin-6-yl]-2,3-dihydro-1,4-benzoxazepin-4(5H)-yl}carbonyl)-3-(trifluoromethyl)-8-azabicyclo[3.2.1]octan-3-(endo)-ol] | ≤ 75 | ≤ 50
9 | O=C(N1CCOc2ccc(-c3ccc(-c4ncc[nH]4)cc3)cc2C1)N1[C@@H]2CC[C@H]1C[C@](O)(C(F)(F)F)C2 [Compound 59, 8-({7-[4-(1H-imidazol-2-yl)phenyl]-2,3-dihydro-1,4-benzoxazepin-4(5H)-yl}carbonyl)-3-(trifluoromethyl)-8-azabicyclo[3.2.1]octan-3-(endo)-ol] | ≤ 75 | ≤ 50
10 | Cc1nc2ccc(-c3ccc4c(c3)CN(C(=O)N3CCC(Oc5ccc(Cl)cc5)CC3)CCO4)cc2[nH]1 [Compound 70, 4-({4-[(4-chlorophenyl)oxy]piperidin-1-yl}carbonyl)-7-(2-methyl-1H-benzimidazol-6-yl)-2,3,4,5-tetrahydro-1,4-benzoxazepine] | 1000 to 3000 | 50 to 250
11 | Cc1nc2ccc(-c3ccc4c(c3)CN(C(=O)N3CCC(S(C)(=O)=O)CC3)CCO4)cc2[nH]1 [Compound 102, 7-(2-methyl-1H-benzimidazol-6-yl)-4-{[4-(methylsulfonyl)piperidin-1-yl]carbonyl}-2,3,4,5-tetrahydro-1,4-benzoxazepine] | 500 to 1000 | 50 to 250
12 | COC(=O)Nc1nc2ccc(-c3ccc4c(c3)CN(C(=O)N3CCCCC3c3ccc(F)cc3)CCO4)cc2[nH]1 (stereo not shown) [Compound 12, methyl [6-(4-{[2-(4-fluorophenyl)piperidin-1-yl]carbonyl}-2,3,4,5-tetrahydro-1,4-benzoxazepin-7-yl)-1H-benzimidazol-2-yl]carbamate] | ≤ 75 | 50 to 250
13 | Cc1nc2ccc(-c3ccc4c(c3)CN(C(=O)N3CCCC3C)CCO4)cc2[nH]1 (stereo not shown) [Compound 99, 7-(2-methyl-1H-benzimidazol-6-yl)-4-[(2-methylpyrrolidin-1-yl)carbonyl]-2,3,4,5-tetrahydro-1,4-benzoxazepine] | 500 to 1000 | 700 to 2600
14 | Cc1nc2ccc(-c3ccc4c(c3)CN(C(=O)N3CCN(c5ccccn5)CC3)CCO4)cc2[nH]1 [Compound 172, 7-(2-methyl-1H-benzimidazol-6-yl)-4-[(4-pyridin-2-ylpiperazin-1-yl)carbonyl]-2,3,4,5-tetrahydro-1,4-benzoxazepine] | 200 to 500 | 700 to 2600
15 | Nc1nc2ncc(-c3ccc4c(c3)CN(C(=O)N3CCC(CF)CC3)CCO4)cc2[nH]1 [Compound 45, 6-(4-{[4-(fluoromethyl)piperidin-1-yl]carbonyl}-2,3,4,5-tetrahydro-1,4-benzoxazepin-7-yl)-1H-imidazo[4,5-b]pyridin-2-amine] | ≤ 75 | ≤ 50
16 | O=C(N1CCC(C(F)F)CC1)N1CCOc2ccc(-c3ccc(-c4ncc[nH]4)cc3)cc2C1 [Compound 62, 4-{[4-(difluoromethyl)piperidin-1-yl]carbonyl}-7-[4-(1H-imidazol-2-yl)phenyl]-2,3,4,5-tetrahydro-1,4-benzoxazepine] | 75 to 200 | ≤ 50
17 | COC(=O)Nc1nc2ncc(-c3ccc4c(c3)CN(C(=O)N3CCC(CF)CC3)CCO4)cc2[nH]1 [Compound 36, methyl [6-(4-{[4-(fluoromethyl)piperidin-1-yl]carbonyl}-2,3,4,5-tetrahydro-1,4-benzoxazepin-7-yl)-1H-imidazo[4,5-b]pyridin-2-yl]carbamate] | ≤ 75 | ≤ 50
18 | CC1=C[C@H]2CN(C(=O)N3CCOc4ccc(-c5ccc6[nH]c(C)nc6c5)cc4C3)C[C@H]2C1 (racemic) [Compound 91, (±)-7-(2-methyl-1H-benzimidazol-5-yl)-4-{[(3aS,6aR)-5-methyl-3,3a,4,6a-tetrahydrocyclopenta[c]pyrrol-2(1H)-yl]carbonyl}-2,3,4,5-tetrahydro-1,4-benzoxazepine] | 200 to 500 | 50 to 250
19 | Cc1nc2ccc(-c3ccc4c(c3)CN(C(=O)N3CCCC(C)C3)CCO4)cc2[nH]1 (stereo not shown) [Compound 88, 7-(2-methyl-1H-benzimidazol-6-yl)-4-[(3-methylpiperidin-1-yl)carbonyl]-2,3,4,5-tetrahydro-1,4-benzoxazepine] | 200 to 500 | 250 to 700
20 | Cc1nc2ccc(-c3ccc4c(c3)CN(C(=O)N3CCCCC3c3cccc(C(F)(F)F)c3)CCO4)cc2[nH]1 (stereo not shown) [Compound 127, 7-(2-methyl-1H-benzimidazol-6-yl)-4-({2-[3-(trifluoromethyl)phenyl]piperidin-1-yl}carbonyl)-2,3,4,5-tetrahydro-1,4-benzoxazepine] | 200 to 500 | 250 to 700
21 | CCNc1nc2ccc(-c3ccc4c(c3)CN(C(=O)N3CCC(CF)CC3)CCO4)cc2[nH]1 [Compound 29, N-ethyl-6-(4-{[4-(fluoromethyl)piperidin-1-yl]carbonyl}-2,3,4,5-tetrahydro-1,4-benzoxazepin-7-yl)-1H-benzimidazol-2-amine] | 75 to 200 | ≤ 50
22 | CC(=O)Nc1nc2ccc(-c3ccc4c(c3)CN(C(=O)N3CCC(CF)CC3)CCO4)cc2[nH]1 [Compound 50, N-[5-(4-{[4-(fluoromethyl)piperidin-1-yl]carbonyl}-2,3,4,5-tetrahydro-1,4-benzoxazepin-7-yl)-1H-benzimidazol-2-yl]acetamide] | 500 to 1000 | 250 to 700
23 | Cc1nc2ccc(-c3ccc4c(c3)CN(C(=O)N3CCN(c5ncccn5)CC3)CCO4)cc2[nH]1 [Compound 166, 7-(2-methyl-1H-benzimidazol-6-yl)-4-[(4-pyrimidin-2-ylpiperazin-1-yl)carbonyl]-2,3,4,5-tetrahydro-1,4-benzoxazepine] | 200 to 500 | 700 to 2600
